Data from patent US5739294A, “Bicyclopol yazamacrocyclophosphonic acid complexes for use as contrast agents” (priority 1994, dated 1998).

Tests used:
[1] = MRI imaging experiments in rats; type: in vivo, Sprague Dawley rat; details: rat, intramuscular, 0.05-0.1 mmol Gd/kg
Procedure: Injectable solutions were first prepared (0.5M) by dissolving the appropriate amount of each complex in 2 mL of deionized water. The pH of the solutions were then adjusted to 7.4 using 1M HCl or NaOH as needed. The total Gd content of each solution was then determined by ICP analysis.
An anesthetized Sprague Dawley rat was injected intramuscularly with one of the metal solutions described above at a dose of 0.05-0.1 mmol Gd/kg body weight. Images were then taken at various time intervals and compared with a non-injected control at time 0.

[2] = in vivo; cited from earlier work
[3] = compared with Magnevist; cited from earlier work
[4] = biodistribution, percent of injected dose in tissues of rats; type: in vivo, Sprague Dawley rats; details: rat, tail vein; for % injected dose, Blood: blood assumed 7% of body weight; for % injected dose, Muscle: muscle assumed 43% of body weight; for % injected dose, Bone: percent dose in femur × 25
Procedure: Sprague Dawley rats were allowed to acclimate for five days then injected with 100 μL of the complex solution via a tail vein. The rats weighed between 150 and 200 g at the time of injection. […] The amount of radioactivity in each tissue was determined by counting in a NaI scintillation counter coupled to a multichannel analyzer. The counts were compared to the counts in 100 μL standards in order to determine the percentage of the dose in each tissue or organ.
The percent dose in blood was estimated assuming blood to be 7% of the body weight. The percent dose in bone was estimated by multiplying the percent dose in the femur by 25. The percent dose in muscle was estimated assuming muscle to be 43% of the body weight. […]

[5] = percent metal as a complex (Sephadex column, ^153 Sm tracer); type: physicochemical; details: 1:1 ligand/metal, SmCl3 3×10^-4 M in 0.01N HCl
Procedure: A stock ^159 GdCl3 (or ^153 SmCl3) solution was prepared by adding 2 μL of 3×10^-4 M ^159 GdCl3 in 0.1N HCl to 2 mL of a 3×10^-4 M GdCl3 carrier solution. Appropriate ligand solutions were then prepared in deionized water. The 1:1 ligand/metal complexes were then prepared by combining the ligands (dissolved in 100-500 μL of deionized water) with 2 mL of the stock ^159 GdCl3 solution, followed by through mixing to give an acidic solution (pH=2). The pH of the solution was then raised to 7.0 using 0.1N NaOH. The percent metal as a complex was then determined by passing a sample of the complex solution through a Sephadex™ G-50 column, eluting with 4:1 saline ([…]) and collecting 2×3 mL fractions. The amount of radioactivity in the combined elutions was then compared with that left on the resin (non-complexed metal is retained on the resin). […]
A solution of the ligand of Example 1 was prepared by dissolving 3.8 mg of ligand/0.517 mL of deionized water (pH=2). […] After thorough mixing, the percent metal as a complex was determined by passing a sample of the complex solution through a Sephadex™ column, eluting with 4:1 saline (0.85% NaCl/NH4 OH), and collecting 2×3 mL fractions. The amount of radioactivity in the combined elutions was then compared with that left on the resin. […] By this method complexation was determined to be 98%. […]

Molecule | % injected dose, Brain ([4]; 2 hours post injection) [%] | % injected dose, Heart ([4]; 2 hours post injection) [%] | % injected dose, Kidney ([4]; 2 hours post injection) [%] | % injected dose, Large Intestine ([4]; 2 hours post injection) [%] | % injected dose, Liver ([4]; 2 hours post injection) [%] | % injected dose, Lung ([4]; 2 hours post injection) [%] | % injected dose, Small Intestine ([4]; 2 hours post injection) [%] | % injected dose, Spleen ([4]; 2 hours post injection) [%] | % injected dose, Stomach ([4]; 2 hours post injection) [%] | % injected dose, Blood ([4]; 2 hours post injection) [%] | % injected dose, Muscle ([4]; 2 hours post injection) [%] | % injected dose, Bone ([4]; 2 hours post injection) [%] | also measured
O=P(O)(O)CN1CCN(CP(=O)(O)O)Cc2cccc(n2)CN(CP(=O)(O)O)CC1.[Gd] [Gd-PCTMP] | – | – | – | – | – | – | – | – | – | – | – | – | MR image enhancement, kidney [1]: kidney enhancement; bone localization in MR image [1]: bone localization in the shoulder, spine and sternum
CNC[C@H](O)[C@@H](O)[C@H](O)[C@H](O)CO.CNC[C@H](O)[C@@H](O)[C@H](O)[C@H](O)CO.O=C([O-])CN(CCN(CC(=O)[O-])CC(=O)O)CCN(CC(=O)[O-])CC(=O)O.[Gd+3] [MAGNEVIST, complex of gadolinium with diethylenetriaminepentaacetic acid] | – | – | – | – | – | – | – | – | – | – | – | – | distribution [2]: freely distributes in extracellular fluid; elimination [2]: efficient elimination through the renal system
CC(O)CN1CCN(CC(=O)[O-])CCN(CC(=O)[O-])CCN(CC(=O)[O-])CC1.[Gd+3] (centres unmarked) [PROHANCE, [1,4,7-tris(carboxymethyl)-10-(2-hydroxypropyl)-1,4,7,10-tetraazacyclododecanato]-gadolinium] | – | – | – | – | – | – | – | – | – | – | – | – | side effects [3]: fewer side effects than Magnevist; distribution [2]: freely distributes in extracellular fluid; elimination [2]: efficient elimination through the renal system
O=C(O)CN1CCN(CP(=O)(O)O)CCN(CC(=O)O)Cc2cccc(n2)C1.[153Sm] [^153 Sm-PC2A1P] | 0.01 | 0.04 | 0.93 | 0.12 | 1.46 | 0.06 | 13.10 | 0.02 | 0.25 | 0.36 | 1.00 | 47.98 | –
CCCCOP(=O)([O-])CN1CCN(CP(=O)([O-])OCCCC)Cc2cccc(n2)CN(CP(=O)([O-])OCCCC)CC1.[153Sm+3] [^153 Sm-PMBHE] | 0.00 | 0.02 | 0.43 | 0.77 | 2.70 | 0.04 | 57.89 | 0.05 | 0.08 | 0.14 | 1.09 | 3.73 | –
CCCOP(=O)([O-])CN1CCN(CP(=O)([O-])OCCC)Cc2cccc(n2)CN(CP(=O)([O-])OCCC)CC1.[153Sm+3] [^153 Sm-PMPHE] | 0.00 | 0.08 | 1.55 | 2.17 | 4.14 | 0.12 | 10.71 | 0.05 | 0.44 | 0.25 | 1.19 | 10.86 | –
^153 Sm-3,6,9,15-tetraazabicyclo[9.3.1]pentadeca-1(15),11,13-triene-3,6,9-trimethylenephosphonic acid [^153 Sm-PCTMP] | – | – | – | – | – | – | – | – | – | – | – | – | complexation (percent metal as a complex) [5]: 98%; % injected dose, Kidney ([4]; 30 min (general procedure)): 1.42%; % injected dose, Liver ([4]; 30 min (general procedure)): 0.99%; % injected dose, Spleen ([4]; 30 min (general procedure)): 0.07%; % injected dose, Blood ([4]; 30 min (general procedure)): 6.27%; % injected dose, Muscle ([4]; 30 min (general procedure)): 4.77%; % injected dose, Bone ([4]; 30 min (general procedure)): 34.87%
